Columns and labels:
Assay in all cases: relative viability (nuclei count vs DMSO), 5 days (fraction); higher = more cells survive
NCI-H1793 = test system: NCI-H1793
Method in brief: (§1)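 Medians of duplicate plates are given as relative viability. That measure is the nuclei count in treated wells divided by the count in vehicle wells. Counts were taken on 4× images of lung cancer cell lines in 1536-well plates, 5 days after pin-tool dosing the day after seeding with one drug alone or a fixed anchor-drug dose plus five library-drug doses (not always all listed) in √10 steps.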

A-427 = test system: A-427
Method in brief: as §1

LXF-289 = test system: LXF-289
Method in brief: as §1

EMC-BAC-2 = test system: EMC-BAC-2
Method in brief: as §1

NCI-H2009 = test system: NCI-H2009
Method in brief: as §1

SK-MES-1 = test system: SK-MES-1
Method in brief: as §1

NCI-H1944 = test system: NCI-H1944
Method in brief: as §1

ABC-1 = test system: ABC-1
Method in brief: as §1

NCI-H1993 = test system: NCI-H1993
Method in brief: as §1

PC-3 [JPC-3] = test system: PC-3 [JPC-3]
Method in brief: as §1

NCI-H596 = test system: NCI-H596
Method in brief: as §1

NCI-H1792 = test system: NCI-H1792
Method in brief: as §1

NCI-H3122 = test system: NCI-H3122
Method in brief: as §1

HARA = test system: HARA
Method in brief: as §1

SW 1573 = test system: SW 1573
Method in brief: as §1

SK-LU-1 = test system: SK-LU-1
Method in brief: as §1

HOP-62 = test system: HOP-62
Method in brief: as §1

NCI-H2228 = test system: NCI-H2228
Method in brief: as §1

COR-L23 = test system: COR-L23
Method in brief: as §1

NCI-H727 = test system: NCI-H727
Method in brief: as §1

NCI-H2170 = test system: NCI-H2170
Method in brief: as §1

LK-2 = test system: LK-2
Method in brief: as §1

Oc1nc(-c2ccc(C(F)(F)F)cc2)nc2c1CSCC2 [XAV939] + CS(=O)(=O)CCNCc1ccc(-c2ccc3ncnc(Nc4ccc(OCc5cccc(F)c5)c(Cl)c4)c3c2)o1 [Lapatinib] (partner 2 µM)
relative viability (NCI-H1793; first compound 0.08 µM): 0.892 | relative viability (NCI-H1793; first compound 0.253 µM): 0.602 | relative viability (NCI-H1793; first compound 0.8 µM): 0.714 | relative viability (NCI-H1793; first compound 2.53 µM): 0.877 | relative viability (A-427; first compound 0.08 µM): 1.09 | relative viability (A-427; first compound 0.253 µM): 1.02 | relative viability (A-427; first compound 0.8 µM): 1.11 | relative viability (A-427; first compound 2.53 µM): 1.03 | relative viability (LXF-289; first compound 0.08 µM): 0.898 | relative viability (LXF-289; first compound 0.253 µM): 0.826 | relative viability (LXF-289; first compound 0.8 µM): 0.897 | relative viability (LXF-289; first compound 2.53 µM): 0.919 | relative viability (EMC-BAC-2; first compound 0.08 µM): 1.01 | relative viability (EMC-BAC-2; first compound 0.253 µM): 0.821 | relative viability (EMC-BAC-2; first compound 0.8 µM): 0.837 | relative viability (EMC-BAC-2; first compound 2.53 µM): 0.681 | relative viability (NCI-H2009; first compound 0.08 µM): 1.08 | relative viability (NCI-H2009; first compound 0.253 µM): 0.819 | relative viability (NCI-H2009; first compound 0.8 µM): 0.842 | relative viability (NCI-H2009; first compound 2.53 µM): 0.771 | relative viability (SK-MES-1; first compound 0.08 µM): 0.499 | relative viability (SK-MES-1; first compound 0.253 µM): 0.389 | relative viability (SK-MES-1; first compound 0.8 µM): 0.424 | relative viability (SK-MES-1; first compound 2.53 µM): 0.406 | relative viability (NCI-H1944; first compound 0.08 µM): 1.16 | relative viability (NCI-H1944; first compound 0.253 µM): 0.865 | relative viability (NCI-H1944; first compound 0.8 µM): 0.834 | relative viability (NCI-H1944; first compound 2.53 µM): 0.679 | relative viability (ABC-1; first compound 0.08 µM): 1.34 | relative viability (ABC-1; first compound 0.253 µM): 1.08 | relative viability (ABC-1; first compound 0.8 µM): 1.26 | relative viability (ABC-1; first compound 2.53 µM): 0.657 | relative viability (NCI-H1993; first compound 0.8 µM): 0.866 | relative viability (NCI-H1993; first compound 2.53 µM): 0.702 | relative viability (PC-3 [JPC-3]; first compound 0.08 µM): 0.454 | relative viability (PC-3 [JPC-3]; first compound 0.253 µM): 0.417 | relative viability (PC-3 [JPC-3]; first compound 0.8 µM): 0.435 | relative viability (PC-3 [JPC-3]; first compound 2.53 µM): 0.443 | relative viability (NCI-H596; first compound 0.08 µM): 1.21 | relative viability (NCI-H596; first compound 0.253 µM): 1.12 | relative viability (NCI-H596; first compound 0.8 µM): 1.1 | relative viability (NCI-H596; first compound 2.53 µM): 0.656 | relative viability (NCI-H1792; first compound 0.08 µM): 1.14 | relative viability (NCI-H1792; first compound 0.253 µM): 0.523 | relative viability (NCI-H1792; first compound 0.8 µM): 0.805 | relative viability (NCI-H1792; first compound 2.53 µM): 0.806 | relative viability (NCI-H3122; first compound 0.08 µM): 1.01 | relative viability (NCI-H3122; first compound 0.253 µM): 0.95 | relative viability (NCI-H3122; first compound 0.8 µM): 1.01 | relative viability (NCI-H3122; first compound 2.53 µM): 1.01 | relative viability (HARA; first compound 0.08 µM): 0.73 | relative viability (HARA; first compound 0.253 µM): 0.419 | relative viability (HARA; first compound 0.8 µM): 0.402 | relative viability (HARA; first compound 2.53 µM): 0.606 | relative viability (SW 1573; first compound 0.08 µM): 1.11 | relative viability (SW 1573; first compound 0.253 µM): 0.908 | relative viability (SW 1573; first compound 0.8 µM): 1.07 | relative viability (SW 1573; first compound 2.53 µM): 0.983 | relative viability (SK-LU-1; first compound 0.08 µM): 0.858 | relative viability (SK-LU-1; first compound 0.253 µM): 0.845 | relative viability (SK-LU-1; first compound 0.8 µM): 0.863 | relative viability (SK-LU-1; first compound 2.53 µM): 0.906 | relative viability (HOP-62; first compound 0.08 µM): 1.1 | relative viability (HOP-62; first compound 0.253 µM): 0.963 | relative viability (HOP-62; first compound 0.8 µM): 0.918 | relative viability (HOP-62; first compound 2.53 µM): 0.735 | relative viability (NCI-H2228; first compound 0.08 µM): 1.03 | relative viability (NCI-H2228; first compound 0.253 µM): 0.922 | relative viability (NCI-H2228; first compound 0.8 µM): 0.848 | relative viability (NCI-H2228; first compound 2.53 µM): 0.928 | relative viability (COR-L23; first compound 0.08 µM): 1.04 | relative viability (COR-L23; first compound 0.253 µM): 0.924 | relative viability (COR-L23; first compound 0.8 µM): 0.932 | relative viability (COR-L23; first compound 2.53 µM): 0.89 | relative viability (NCI-H727; first compound 0.08 µM): 1.14 | relative viability (NCI-H727; first compound 0.253 µM): 0.589 | relative viability (NCI-H727; first compound 0.8 µM): 0.759 | relative viability (NCI-H727; first compound 2.53 µM): 0.877 | relative viability (NCI-H2170; first compound 0.08 µM): 0.259 | relative viability (NCI-H2170; first compound 0.253 µM): 0.263 | relative viability (NCI-H2170; first compound 0.8 µM): 0.267 | relative viability (NCI-H2170; first compound 2.53 µM): 0.261 | relative viability (LK-2; first compound 0.08 µM): 0.979 | relative viability (LK-2; first compound 0.253 µM): 0.981 | relative viability (LK-2; first compound 0.8 µM): 1.04 | relative viability (LK-2; first compound 2.53 µM): 0.928

— the supplement of paper PMC10307832
